Assay results reported in BindingDB's records for doi:10.1016/j.chembiol.2007.10.010 (University of Munich, 2007).

Molecular target: T1, 3-phosphoinositide-dependent protein kinase 1 (Homo sapiens, UniProt O15530)
T1 sequence (O15530 whole entry): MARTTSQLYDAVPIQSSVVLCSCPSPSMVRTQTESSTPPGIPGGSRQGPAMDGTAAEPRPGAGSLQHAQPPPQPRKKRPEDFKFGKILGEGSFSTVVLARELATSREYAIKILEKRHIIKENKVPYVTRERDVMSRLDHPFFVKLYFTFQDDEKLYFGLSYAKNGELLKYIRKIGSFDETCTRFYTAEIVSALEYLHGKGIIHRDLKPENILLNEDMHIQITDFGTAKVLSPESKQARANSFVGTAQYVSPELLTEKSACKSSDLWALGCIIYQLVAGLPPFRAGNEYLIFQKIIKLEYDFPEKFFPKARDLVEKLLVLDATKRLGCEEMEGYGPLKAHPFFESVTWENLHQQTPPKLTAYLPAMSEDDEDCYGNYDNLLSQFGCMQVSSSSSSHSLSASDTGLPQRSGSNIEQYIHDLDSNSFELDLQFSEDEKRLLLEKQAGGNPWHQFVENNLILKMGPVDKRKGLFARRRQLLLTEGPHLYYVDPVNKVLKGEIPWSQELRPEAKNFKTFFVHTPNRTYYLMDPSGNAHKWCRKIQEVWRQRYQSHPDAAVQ
Experiment: In Vitro Kinase Assay
Conditions: pH 7.5; 30 °C
From the text: PDK1 protein kinase was expressed in Sf9 insect cells as human recombinant GST-fusion protein by means of the baculovirus expression systems. Protein kinase assay (33PanQinase assay) was used for measuring the kinase activity of PDK1.

IC50 | Compound
> 100 µM | O=Nc1c(C2C(=O)Nc3ccc(Br)cc32)[nH]c2ccccc12 (configuration not stated) [5BIO]
> 100 µM | O=Nc1c(C2C(=O)Nc3ccccc32)[nH]c2ccccc12 (configuration not stated) [Indirubin-3 -monoxime]
